In patent US10112940B2, “Histone demethylase inhibitors” (Celgene Quanticel Research, Inc., priority 2014, dated 2018):

Legend:
[1] = biological target: JMJD2C (Homo sapiens (Human), UniProt Q9H3R0); assay: JMJD2C in vitro enzyme inhibition assay (TR-FRET); assay type: biochemical; settings: 0.3 nM JMJD2C, 300 nM H3K9me3-biotin peptide, 2 μM alpha-ketoglutaric acid, 30 minutes
Outline: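 Baculovirus-expressed JMJD2C (aa 2-372), 0.3 nM, with 300 nM biotin-H3K9me3 peptide and 2 μM alpha-ketoglutarate in HEPES pH 7.3 with ascorbate and Fe(II), 30 min at room temperature, 11-point inhibitor series. H3K9me2 product detected by TR-FRET (Eu-antibody/streptavidin-APC, 665/615 ratio); IC50 fitted.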

[2] = test system: KYSE-150 esophageal carcinoma cell line; assay: In vitro cell-based assay: BrdU incorporation cell proliferation ELISA; set-up: species or system human; settings: Homo sapiens, KYSE-150 cells, 168 hours compound incubation, read-out: Cellular IC50
Outline: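 KYSE-150 cells (SMAD4 mut, TP53 mut) seeded at 2,000 cells/well, treated next day with 11-point dilutions (100 μM to 2 nM final) for 168 h. Proliferation read by 2 h BrdU labelling and colorimetric anti-BrdU ELISA at 450 nm; IC50 from curve fit.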

JMJD2C, sequence (Q9H3R0 2-372): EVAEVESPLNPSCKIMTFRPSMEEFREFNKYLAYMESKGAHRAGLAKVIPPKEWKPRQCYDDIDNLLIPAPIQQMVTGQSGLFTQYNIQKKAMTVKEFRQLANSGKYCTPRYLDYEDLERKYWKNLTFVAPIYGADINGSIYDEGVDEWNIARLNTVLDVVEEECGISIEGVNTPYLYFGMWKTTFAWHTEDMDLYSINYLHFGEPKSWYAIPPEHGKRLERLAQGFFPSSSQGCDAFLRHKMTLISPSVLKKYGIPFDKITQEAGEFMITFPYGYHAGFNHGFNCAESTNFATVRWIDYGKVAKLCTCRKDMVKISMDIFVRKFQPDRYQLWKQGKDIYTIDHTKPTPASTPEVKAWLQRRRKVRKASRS

Compound `CN1CCN(c2cccc(N(C)c3ccc(Oc4nc(O)c5ccncc5n4)cc3)c2)CC1=O` [Example 45, 4-[3-[4-(4-hydroxypyrido[3,4-d]pyrimidin-2-yl)oxy-N-methylanilino]phenyl]-1-methylpiperazin-2-one] has an IC50 [1] of 0.1 to 1 µM and an IC50 [2] of over 10 µM.
With `CC[C@H](C)c1ccc(N(C)c2ccc(Oc3nc(O)c4ccncc4n3)cc2)cc1` [Example 77, 2-[4-[4-[(2S)-butan-2-yl]-N-methylanilino]phenoxy]pyrido[3,4-d]pyrimidin-4-ol] the IC50 [1] was 1 to 10 µM and the IC50 [2] was at most 0.1 µM.
Compound `Oc1nc(Oc2ccc(N3CCC(c4ccccc4)C3)cc2)nc2cnccc12` (stereo not shown) [Example 54, 2-[4-(3-phenylpyrrolidin-1-yl)phenoxy]pyrido[3,4-d]pyrimidin-4-ol] has an IC50 [1] of 1 to 10 µM and an IC50 [2] of over 10 µM.
For `COC(C)c1ccc(N(C)c2ccc(Oc3nc(O)c4ccncc4n3)cc2)cc1` (stereo not shown) [Example 36, 2-(4-{[4-(1-methoxy-ethyl)-phenyl]-methyl-amino}-phenoxy)-pyrido[3,4-d]pyrimidin-4-ol], the IC50 [1] was 0.1 to 1 µM and the IC50 [2] was 0.1 to 1 µM.
`CN(c1ccc(Oc2nc(O)c3ccncc3n2)cc1)c1ccc(S(C)(=O)=O)cc1` [Example 57, 2-[4-(N-methyl-4-methylsulfonylanilino)phenoxy]pyrido[3,4-d]pyrimidin-4-ol] showed an IC50 [1] of 0.1 to 1 µM and an IC50 [2] of over 10 µM.
For `CN(c1ccc(CC(F)(F)F)cc1)c1ccc(Oc2nc(O)c3ccncc3n2)cc1` [Example 106, 2-[4-[N-methyl-4-(2,2,2-trifluoroethyl)anilino]phenoxy]pyrido[3,4-d]pyrimidin-4-ol], the IC50 [1] was 1 to 10 µM and the IC50 [2] was at most 0.1 µM.
In the case of `CC(CCN(C)C)c1ccc(N(C)c2ccc(Oc3nc(O)c4ccncc4n3)cc2)cc1` (stereo not shown) [Example 115, 2-(4-{[4-(3-dimethylamino-1-methyl-propyl)-phenyl]-methyl-amino}-phenoxy)-pyrido[3,4-d]pyrimidin-4-ol], the IC50 [1] is reported as at most 0.1 µM and the IC50 [2] is reported as over 10 µM.
With `CN(C)c1cccc(N(C)c2ccc(Oc3nc(O)c4ccncc4n3)cc2)c1` [Example 47, 2-[4-[3-(dimethylamino)-N-methylanilino]phenoxy]pyrido[3,4-d]pyrimidin-4-ol] the IC50 [1] was 0.1 to 1 µM and the IC50 [2] was 0.1 to 1 µM.
Work on `CN(c1ccc(Oc2nc(O)c3ccncc3n2)cc1)c1ccc(C2CCOCC2)cc1` [Example 99, 2-[4-[N-methyl-4-(oxan-4-yl)anilino]phenoxy]pyrido[3,4-d]pyrimidin-4-ol] yielded an IC50 [1] of 0.1 to 1 µM and an IC50 [2] of at most 0.1 µM.
`CN(c1ccc(Oc2nc(O)c3ccncc3n2)cc1)c1cccc(N2CCOCC2)c1` [Example 19, 2-{4-[Methyl-(3-morpholin-4-yl-phenyl)-amino]-phenoxy}-pyrido[3,4-d]pyrimidin-4-ol] was tested, and the IC50 [1] was 0.1 to 1 µM and the IC50 [2] was 0.1 to 1 µM.
Compound `CN1CCN(c2ccc(N(C)c3ccc(Oc4nc(O)c5ccncc5n4)cc3)cc2)CC1` [Example 46, 2-[4-[N-methyl-4-(4-methylpiperazin-1-yl)anilino]phenoxy]pyrido[3,4-d]pyrimidin-4-ol] has an IC50 [1] of 0.1 to 1 µM and an IC50 [2] of over 10 µM.
With `CN(c1ccc(Oc2nc(O)c3ccncc3n2)cc1)c1ccc(C2=CCOCC2)cc1` [Example 98, 2-[4-[4-(3,6-dihydro-2H-pyran-4-yl)-N-methylanilino]phenoxy]pyrido[3,4-d]pyrimidin-4-ol] the IC50 [1] was 1 to 10 µM and the IC50 [2] was over 10 µM.
For `Oc1nc(Oc2ccc3c(cnn3Cc3ccccc3)c2)nc2cnccc12` [Example 15, 2-(1-Benzyl-1H-indazol-5-yloxy)-pyridino[3,4-d]pyrimidin-4-ol], the IC50 [1] was 0.1 to 1 µM and the IC50 [2] was 1 to 10 µM.
For `CCCc1ccc(N(C)c2ccc(Oc3nc(O)c4ccncc4n3)cc2)cc1` [Example 69, 2-[4-(N-methyl-4-propylanilino)phenoxy]pyrido[3,4-d]pyrimidin-4-ol], the IC50 [1] was 1 to 10 µM and the IC50 [2] was at most 0.1 µM.
In the case of `CN(c1ccc(CC2CC2)cc1)c1ccc(Oc2nc(O)c3ccncc3n2)cc1` [Example 76, 2-[4-[4-(cyclopropylmethyl)-N-methylanilino]phenoxy]pyrido[3,4-d]pyrimidin-4-ol], the IC50 [1] is reported as 1 to 10 µM and the IC50 [2] is reported as at most 0.1 µM.
`CC(CCN)c1ccc(N(C)c2ccc(Oc3nc(O)c4ccncc4n3)cc2)cc1` (stereo not shown) [Example 71, 2-[4-[4-(4-aminobutan-2-yl)-N-methylanilino]phenoxy]pyrido[3,4-d]pyrimidin-4-ol] was tested, and the IC50 [1] was at most 0.1 µM and the IC50 [2] was 1 to 10 µM.
Work on `CCN(c1ccc(Oc2nc(O)c3ccncc3n2)cc1)c1ccc(C(C)C)cc1` [Example 117, 2-(4-(ethyl(4-isopropylphenyl)amino)phenoxy)pyrido[3,4-d]pyrimidin-4-ol] yielded an IC50 [1] of 1 to 10 µM and an IC50 [2] of at most 0.1 µM.
`CCc1ccc(N(C)c2ccc(Oc3nc(O)c4ccncc4n3)cc2)cc1N1CCN(C)CC1` [Example 60, 2-[4-[4-ethyl-N-methyl-3-(4-methylpiperazin-1-yl)anilino]phenoxy]pyrido[3,4-d]pyrimidin-4-ol] was tested, and the IC50 [1] was at most 0.1 µM and the IC50 [2] was over 10 µM.
With `CN(c1ccc(Oc2nc(O)c3ccncc3n2)cc1)c1cccc(C(F)(F)F)c1` [Example 86, 2-[4-[N-methyl-3-(trifluoromethyl)anilino]phenoxy]pyrido[3,4-d]pyrimidin-4-ol] the IC50 [1] was 1 to 10 µM and the IC50 [2] was 0.1 to 1 µM.
For `CN(c1ccc(OCC2CC2)cc1)c1ccc(Oc2nc(O)c3ccncc3n2)cc1` [Example 101, 2-[4-[4-(cyclopropylmethoxy)-N-methylanilino]phenoxy]pyrido[3,4-d]pyrimidin-4-ol], the IC50 [1] was 1 to 10 µM and the IC50 [2] was 0.1 to 1 µM.
Work on `CN(c1ccc(Oc2nc(O)c3ccncc3n2)cc1)c1cccc(N2CCC(N)CC2)c1` [Example 50, 2-[4-[3-(4-aminopiperidin-1-yl)-N-methylanilino]phenoxy]pyrido[3,4-d]pyrimidin-4-ol] yielded an IC50 [1] of at most 0.1 µM and an IC50 [2] of over 10 µM.
Compound `Cc1cc(N2CCN(C)CC2)cc(N(C)c2ccc(Oc3nc(O)c4ccncc4n3)cc2)c1` [Example 90, 2-[4-[N,3-dimethyl-5-(4-methylpiperazin-1-yl)anilino]phenoxy]pyrido[3,4-d]pyrimidin-4-ol] has an IC50 [1] of at most 0.1 µM and an IC50 [2] of over 10 µM.
In the case of `CC(c1ccc(N(C)c2ccc(Oc3nc(O)c4ccncc4n3)cc2)cc1)C(F)(F)F` (stereo not shown) [Example 108, 2-[4-[N-methyl-4-(1,1,1-trifluoropropan-2-yl)anilino]phenoxy]pyrido[3,4-d]pyrimidin-4-ol], the IC50 [1] is reported as 0.1 to 1 µM and the IC50 [2] is reported as at most 0.1 µM.
`CN(CCc1ccccc1)c1ccc(Oc2nc(O)c3ccncc3n2)cc1` [Example 13, 2-{4-[Methyl(2-phenylethyl)amino]phenoxy}pyridino[3,4-d]pyrimidin-4-ol] showed an IC50 [1] of 0.1 to 1 µM and an IC50 [2] of 1 to 10 µM.
`COCCN(c1ccc(Oc2nc(O)c3ccncc3n2)cc1)c1ccc(C(C)C)cc1` [Example 102, 2-[4-[N-(2-methoxyethyl)-4-propan-2-ylanilino]phenoxy]pyrido[3,4-d]pyrimidin-4-ol] gave an IC50 [1] of 0.1 to 1 µM and an IC50 [2] of 0.1 to 1 µM.
With `CCN(c1ccccc1)c1ccc(Oc2nc(O)c3ccncc3n2)cc1` [Example 80, 2-[4-(N-ethylanilino)phenoxy]pyrido[3,4-d]pyrimidin-4-ol] the IC50 [1] was 0.1 to 1 µM and the IC50 [2] was 0.1 to 1 µM.
